Laboratory results from publication PMC6790288 (The journal of pain : official journal of the American Pain …, 2019).
Like-named read-outs stand apart in the source and are kept apart here.

Experiments:
[1] = system: pupil diameter; experiment: Pupillometry; type: in vivo, human; settings: trial A; for Pupil diameter, predose: before first dose of segment
[2] = 12 participants, 5 days rifampicin, 100 mg oral tramadol; cited from earlier work
[3] = system: healthy participants; experiment: Abuse liability visual analog scales; type: in vivo, human; settings: trial A, n = 43, 0–100 mm VAS after seventh dose, M (SD)
[4] = cited from earlier work
[5] = system: healthy participants; experiment: Drug-related adverse events
[6] = system: cold-induced pain; experiment: Cold pressor test; type: in vivo, human
[7] = for (+)-M1 Cssmax 90% CI (bioequivalence ratio desmetramadol vs tramadol) / (+)-M1 Cssmin 90% CI (bioequivalence ratio desmetramadol vs tramadol) / (−)-M1 Cssmax 90% CI (bioequivalence ratio desmetramadol vs tramadol) / (−)-M1 Cssmin 90% CI (bioequivalence ratio desmetramadol vs tramadol): bioequivalent if within .80 to 1.25
[8] = system: healthy participants; experiment: Respiratory rate; settings: trial B (with paroxetine), n = 60; MPD (SD)
[9] = in vivo, po; cited from earlier work
[10] = molecular target: μ-opioid receptor; settings: read-out: μ-opioid receptor affinity (Ki); in vitro, racemic M5; cited from earlier work
[11] = system: serotonin reuptake transporter; settings: cited from earlier work
[12] = molecular target: norepinephrine transporter; settings: read-out: norepinephrine transporter Ki; in vitro functional potency; cited from earlier work
[13] = trial A, listed as desmetramadol

## CN(C)C[C@H]1CCCC[C@]1(O)c1cccc(O)c1 [Desmetramadol, O-desmethyltramadol]
[1]; after dosing, mean (SD)
  pupil diameter, mean paired reduction compared with placebo: −1.1 (.8) mm
[1]; n = 43, M (SD)
  Pupil diameter, after seventh dose: 5.1 (1.2) mm
  Pupil diameter, predose: 6.0 (1.1) mm
[1]; n = 43, M (SD), listed as desmetramadol
  Pupil diameter, predose: 6.0 [1.1] mm
[2]
  decrease of AUC by rifampicin induction: 54%
  increase of M1 formation rate by rifampicin induction: 12%
[3]
  Drug liking-disliking: 47 (25) mm
  Strength of drug effect: 29 (28) mm
  Take drug again: 43 (26) mm
[3]; listed as desmetramadol
  Strength of drug effect: 29 [28] mm
[4]
  lethal M1 blood concentrations exceed therapeutic levels: ≤ 50 fold
[5]; trial A
  Deaths: 0(0) n (%)
  Severe AEs: 0 (0) n (%)
  participants reporting drug-related AEs: 44%
[5]; trial A, all
  Dizziness: 6(14) n (%)
  Euphoria: 0 (0) n (%)
  Feel abnormal: 0 (0) n (%)
  Feel hot: 0 (0) n (%)
  Headache: 3 (7) n (%)
  Nausea: 8(19) n (%)
  Presyncope: 0 (0) n (%)
  Pruritus: 3 (7) n (%)
  Somnolence: 3 (7) n (%)
  Spasticity: 0 (0) n (%)
  Sweating: 0 (0) n (%)
  Vomiting: 1 (2) n (%)
[5]; trial A, male
  Dizziness: 6(14) n (%)
  Euphoria: 0 (0) n (%)
  Feel abnormal: 0 (0) n (%)
  Feel hot: 0 (0) n (%)
  Headache: 3 (7) n (%)
  Nausea: 8(19) n (%)
  Presyncope: 0 (0) n (%)
  Pruritus: 3 (7) n (%)
  Somnolence: 3 (7) n (%)
  Spasticity: 0 (0) n (%)
  Sweating: 0 (0) n (%)
  Vomiting: 1 (2) n (%)
[5]; trial A, n = 43 (all male)
  All drug-related AEs: 19 (44) n (%)
[5]; trial B
  Deaths: 0 (0) n (%)
  Severe AEs: 0 (0) n (%)
[5]; trial B (with paroxetine)
  participants reporting drug-related AEs: 67%
[5]; trial B (with paroxetine), n = 60
  All drug-related AEs: 40 (67) n (%)
[5]; trial B, all
  Dizziness: 12 (20) n (%)
  Euphoria: 2 (3) n (%)
  Feel abnormal: 3 (5) n (%)
  Feel hot: 3 (5) n (%)
  Headache: 10(17) n (%)
  Nausea: 16(27) n (%)
  Presyncope: 6(10) n (%)
  Pruritus: 4 (7) n (%)
  Somnolence: 10(17) n (%)
  Spasticity: 3 (5) n (%)
  Sweating: 2 (3) n (%)
  Vomiting: 9(15) n (%)
[5]; trial B, female
  Dizziness: 5 (28) n (%)
  Euphoria: 1 (6) n (%)
  Feel abnormal: 1 (6) n (%)
  Feel hot: 1 (6) n (%)
  Headache: 6(33) n (%)
  Nausea: 5 (28) n (%)
  Presyncope: 3(17) n (%)
  Pruritus: 3(17) n (%)
  Somnolence: 6(33) n (%)
  Spasticity: 0 (0) n (%)
  Sweating: 0 (0) n (%)
  Vomiting: 3(17) n (%)
[5]; trial B, male
  Dizziness: 7(17) n (%)
  Euphoria: 1 (2) n (%)
  Feel abnormal: 2 (5) n (%)
  Feel hot: 2 (5) n (%)
  Headache: 4(10) n (%)
  Nausea: 11 (26) n (%)
  Presyncope: 3 (7) n (%)
  Pruritus: 1 (2) n (%)
  Somnolence: 4(10) n (%)
  Spasticity: 3 (7) n (%)
  Sweating: 2 (5) n (%)
  Vomiting: 6(14) n (%)
[6]; trial A
  average duration of tolerance to pain: 63 s
[6]; trial A, mean [SE]
  tolerance to pain, mean paired increase relative to placebo: 12.6 [3.8] seconds
[6]; trial B (with paroxetine), male participants
  pain tolerated longer after desmetramadol than after tramadol: 44%
[6]; trial B (with paroxetine), male participants, mean [SE]
  tolerance to pain, mean paired increase relative to placebo: 9.9 [1.9] seconds
[6]; trial B (with paroxetine), male population n = 42, mean [SE]
  change in paired cold-induced pain scores at 30 seconds compared with placebo: −.75 [.28] 0−10 VAS
[7]; steady state plasma
  change of (+)-M1 Cssmax, trial B (paroxetine) compared with trial A: 41%
  change of (+)-M1 Cssmin, trial B (paroxetine) compared with trial A: 46%
[7]; trial A
  (−)-M1 Cssmin and Cssmax lower for desmetramadol compared with tramadol: 30%
  (+)-M1 Cssmax 90% CI (bioequivalence ratio desmetramadol vs tramadol): .88–1.13
  (+)-M1 Cssmin 90% CI (bioequivalence ratio desmetramadol vs tramadol): .85–1.08
  (−)-M1 Cssmax 90% CI (bioequivalence ratio desmetramadol vs tramadol): .67-.76
  (−)-M1 Cssmin 90% CI (bioequivalence ratio desmetramadol vs tramadol): .69-.76
[7]; trial A, CYP2D6 poor metabolizer
  mean (+)-M1 in the poor metabolizer: 41 ng/mL
[7]; trial A, CYP2D6 ultrarapid metabolizer
  mean (+)-M1 in the ultrarapid metabolizer: 22 ng/mL
[7]; trial A, poor metabolizer
  increase of mean desmetramadol (+)-M1 compared with tramadol (+)-M1: 650%
[7]; trial A, ultrarapid metabolizer
  decrease of mean desmetramadol (+)-M1 compared with tramadol (+)-M1: 40%
[7]; [13]
  (+)-M1 Cssmax 90% CI (bioequivalence ratio desmetramadol vs tramadol): .88 −1.13
  (+)-M1 Cssmin 90% CI (bioequivalence ratio desmetramadol vs tramadol): .85−1.08
  (−)-M1 Cssmax 90% CI (bioequivalence ratio desmetramadol vs tramadol): .67 −.76
  (−)-M1 Cssmin 90% CI (bioequivalence ratio desmetramadol vs tramadol): .69−.76
[7]; trial B (with paroxetine)
  desmetramadol (+)-M1 Cssmin and Cssmax exceed corresponding tramadol values: 3.5 fold
  (+)-M1 Cssmax 90% CI (bioequivalence ratio desmetramadol vs tramadol): 3.4–4.3
  (+)-M1 Cssmin 90% CI (bioequivalence ratio desmetramadol vs tramadol): 3.4–4.3
  (−)-M1 Cssmax 90% CI (bioequivalence ratio desmetramadol vs tramadol): .93–1.07
  (−)-M1 Cssmin 90% CI (bioequivalence ratio desmetramadol vs tramadol): .95–1.09
[7]; trial B vs trial A
  increase of steady-state (−)-M1 by paroxetine: approximately 15%
[7]; trial B vs trial A, steady state
  increase of plasma (+)-M1 by paroxetine: approximately 40%
[8]
  Average postdose respiratory rate, mean paired difference versus placebo: −.30 [.90] min^−1

## COc1ccc2c3c1O[C@H]1C(=O)CC[C@H]4[C@@H](C2)N(C)CC[C@]314 [Hydrocodone, hydrocodone]
[9]
  lethal oral dose: 90 mg

## CNCC1CCCCC1(O)c1cccc(O)c1 (stereo not shown) [M5, O,N-didesmethyltramadol]
[10]
  Ki: 100 nM

## COc1ccc2c3c1O[C@H]1C(=O)CC[C@@]4(O)[C@@H](C2)N(C)CC[C@]314 [Oxycodone, oxycodone]
[9]
  lethal oral dose: 40 mg

## CC[C@@H](c1cccc(O)c1)[C@@H](C)CN(C)C [Tapentadol]
[11]
  activity at the serotonin reuptake transporter: no activity
[12]
  Ki: 480 nM
